Results reported in EP0394553A2, “Use of fluorine containing pyridone carboxylic acid derivatives for preparing a medicament for the treatment of HIV infections” (DAIICHI PHARMACEUTICAL CO., LTD., priority 1989, dated 1990).
Read-outs that look alike come from different tables or passages of the source.

System: HIV (LAV 1)
Test: microbe, parasite or virus in culture
Details: for Viable cell count / Viral antigen-positive cell percentage: 10 mcg/ml; for viability at 1 µg/mL / viability at 2.5 µg/mL / viability at 5 µg/mL / viability at 10 µg/mL: Human immunodeficiency virus 1, CCRF-CEM
How it was run: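 CEM cells were infected with HIV LAV 1 at MOI 0.05 and cultured with test substance at 10, 5, 2.5 or 1 mcg/ml, with medium exchanged periodically up to 30 days. Viable cell count and percentage were measured by trypan blue, and antigen-positive cells by immunofluorescence with anti-HIV antiserum, at 4–30 days. Values are means of two wells.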

[1] = continuous addition, after 4 days
[2] = continuous addition, after 7 days
[3] = continuous addition, after 10 days
[4] = continuous addition, after 20 days
[5] = continuous addition, after 30 days

Compound: C[C@H]1COc2c(N3CCN(C)CC3)c(F)cc3c(=O)c(C(=O)O)cn1c23 [DR-3355, (-)-(S)-9-fluoro-2,3-dihydro-3-methyl-10-(4-methyl-1-piperazinyl)-7-oxo-7H-pyrido[1,2,3-de][1,4]benzoxazine-6-carboxylic acid hemihydrate]
- Viable cell count (4-day addition, after 4 days): 170 × 10⁴ cells/ml
- Viral antigen-positive cell percentage (4-day addition, after 4 days): 88%
- Viable cell count (4-day addition, after 7 days): 50 × 10⁴ cells/ml
- Viral antigen-positive cell percentage (4-day addition, after 7 days): 57%
- Viable cell count (4-day addition, after 10 days): 280 × 10⁴ cells/ml
- Viral antigen-positive cell percentage (4-day addition, after 10 days): 31%
- Viable cell count (4-day addition, after 20 days): 230 × 10⁴ cells/ml
- Viral antigen-positive cell percentage (4-day addition, after 20 days): 19%
- Viable cell count (4-day addition, after 30 days): 320 × 10⁴ cells/ml
- Viral antigen-positive cell percentage (4-day addition, after 30 days): ≦1%
- Viable cell count [1]: 160 × 10⁴ cells/ml
- Viral antigen-positive cell percentage [1]: 89%
- Viable cell count [2]: 43 × 10⁴ cells/ml
- Viral antigen-positive cell percentage [2]: 55%
- Viable cell count [3]: 220 × 10⁴ cells/ml
- Viral antigen-positive cell percentage [3]: 31%
- Viable cell count [4]: 260 × 10⁴ cells/ml
- Viral antigen-positive cell percentage [4]: 21%
- Viable cell count [5]: 260 × 10⁴ cells/ml
- Viral antigen-positive cell percentage [5]: 4%
- viability at 1 µg/mL (96 h, read-out: Viable cell percentage, 1 mcg/ml, 4-day addition, after 4 days): 95%
- viability at 1 µg/mL (96 h, read-out: Viable cell percentage, 1 mcg/ml, continuous addition, after 4 days): 94%
- viability at 2.5 µg/mL (96 h, read-out: Viable cell percentage, 2.5 mcg/ml, 4-day addition, after 4 days): 94%
- viability at 2.5 µg/mL (96 h, read-out: Viable cell percentage, 2.5 mcg/ml, continuous addition, after 4 days): 94%
- viability at 5 µg/mL (96 h, read-out: Viable cell percentage, 5 mcg/ml, 4-day addition, after 4 days): 91%
- viability at 5 µg/mL (96 h, read-out: Viable cell percentage, 5 mcg/ml, continuous addition, after 4 days): 89%
- viability at 10 µg/mL (96 h, read-out: Viable cell percentage, 10 mcg/ml, 4-day addition, after 4 days): 92%
- viability at 10 µg/mL (96 h, read-out: Viable cell percentage, 10 mcg/ml, continuous addition, after 4 days): 91%
- viability at 1 µg/mL (168 h, read-out: Viable cell percentage, 1 mcg/ml, continuous addition, after 7 days): 69%
- viability at 2.5 µg/mL (168 h, read-out: Viable cell percentage, 2.5 mcg/ml, continuous addition, after 7 days): 68%
- viability at 5 µg/mL (168 h, read-out: Viable cell percentage, 5 mcg/ml, continuous addition, after 7 days): 66%
- viability at 10 µg/mL (168 h, read-out: Viable cell percentage, 10 mcg/ml, continuous addition, after 7 days): 75%
- viability at 1 µg/mL (240 h, read-out: Viable cell percentage, 1 mcg/ml, continuous addition, after 10 days): 61%
- viability at 2.5 µg/mL (240 h, read-out: Viable cell percentage, 2.5 mcg/ml, continuous addition, after 10 days): 94%
- viability at 5 µg/mL (240 h, read-out: Viable cell percentage, 5 mcg/ml, continuous addition, after 10 days): 95%
- viability at 10 µg/mL (240 h, read-out: Viable cell percentage, 10 mcg/ml, continuous addition, after 10 days): 92%
- viability at 1 µg/mL (480 h, read-out: Viable cell percentage, 1 mcg/ml, continuous addition, after 20 days): 50%
- viability at 2.5 µg/mL (480 h, read-out: Viable cell percentage, 2.5 mcg/ml, continuous addition, after 20 days): 95%
- viability at 5 µg/mL (480 h, read-out: Viable cell percentage, 5 mcg/ml, continuous addition, after 20 days): 89%
- viability at 10 µg/mL (480 h, read-out: Viable cell percentage, 10 mcg/ml, continuous addition, after 20 days): 87%
- viability at 1 µg/mL (read-out: Viable cell percentage, 1 mcg/ml, 4-day addition, after 7 days): 70%
- viability at 1 µg/mL (read-out: Viable cell percentage, 1 mcg/ml, 4-day addition, after 10 days): 61%
- viability at 1 µg/mL (read-out: Viable cell percentage, 1 mcg/ml, 4-day addition, after 20 days): 20%
- viability at 1 µg/mL (read-out: Viable cell percentage, 1 mcg/ml, 4-day addition, after 30 days): 98%
- viability at 1 µg/mL (read-out: Viable cell percentage, 1 mcg/ml, continuous addition, after 30 days): 98%
- viability at 2.5 µg/mL (read-out: Viable cell percentage, 2.5 mcg/ml, 4-day addition, after 7 days): 80%
- viability at 2.5 µg/mL (read-out: Viable cell percentage, 2.5 mcg/ml, 4-day addition, after 10 days): 92%
- viability at 2.5 µg/mL (read-out: Viable cell percentage, 2.5 mcg/ml, 4-day addition, after 20 days): 87%
- viability at 2.5 µg/mL (read-out: Viable cell percentage, 2.5 mcg/ml, 4-day addition, after 30 days): 83%
- viability at 2.5 µg/mL (read-out: Viable cell percentage, 2.5 mcg/ml, continuous addition, after 30 days): 88%
- viability at 5 µg/mL (read-out: Viable cell percentage, 5 mcg/ml, 4-day addition, after 7 days): 76%
- viability at 5 µg/mL (read-out: Viable cell percentage, 5 mcg/ml, 4-day addition, after 10 days): 95%
- viability at 5 µg/mL (read-out: Viable cell percentage, 5 mcg/ml, 4-day addition, after 20 days): 87%
- viability at 5 µg/mL (read-out: Viable cell percentage, 5 mcg/ml, 4-day addition, after 30 days): 92%
- viability at 5 µg/mL (read-out: Viable cell percentage, 5 mcg/ml, continuous addition, after 30 days): 75%
- viability at 10 µg/mL (read-out: Viable cell percentage, 10 mcg/ml, 4-day addition, after 7 days): 68%
- viability at 10 µg/mL (read-out: Viable cell percentage, 10 mcg/ml, 4-day addition, after 10 days): 94%
- viability at 10 µg/mL (read-out: Viable cell percentage, 10 mcg/ml, 4-day addition, after 20 days): 85%
- viability at 10 µg/mL (read-out: Viable cell percentage, 10 mcg/ml, 4-day addition, after 30 days): 92%
- viability at 10 µg/mL (read-out: Viable cell percentage, 10 mcg/ml, continuous addition, after 30 days): 83%
